{
  "source": "paper PMC6104039",
  "about": "(Nature Communications, 2018)",
  "test_system": "liver",
  "test": "Lipidomic profiling of liver",
  "assay_type": "in vivo, mice",
  "details": "for Ceramide 18:1/16:0 content of liver / Ceramide 18:1/18:0 content of liver / Ceramide 18:1/20:0 content of liver / Ceramide 18:1/22:0 content of liver / Ceramide 18:1/22:1 content of liver / Ceramide 18:1/24:0 content of liver / Ceramide 18:1/24:1 content of liver / SM 34:1 content of liver / SM 36:1 content of liver / SM 38:1 content of liver / SM 40:1 content of liver / SM 40:2 content of liver / SM 42:1 content of liver / SM 42:2 content of liver / SM 42:3 content of liver: individual mice; for Ceramide 18:1/16:0 content of liver / Ceramide 18:1/18:0 content of liver / Ceramide 18:1/20:0 content of liver / Ceramide 18:1/22:0 content of liver / Ceramide 18:1/22:1 content of liver / Ceramide 18:1/24:0 content of liver / Ceramide 18:1/24:1 content of liver: raw data Fig 3j; for SM 34:1 content of liver / SM 36:1 content of liver / SM 38:1 content of liver / SM 40:1 content of liver / SM 40:2 content of liver / SM 42:1 content of liver / SM 42:2 content of liver / SM 42:3 content of liver: raw data Fig 3k",
  "experimental": "Male C57BL6/J mice were obtained from the Animal Resources Centre in Perth (WA, Australia). Mice were housed at 22 ± 1 °C with a controlled 12:12 h light-dark cycle and had ad libitum access to water and either chow (8% calories from fat) or HFD (45% calories from fat)[66] for 4–6 weeks. […] Treatment was commenced at the same time as mice were randomised to dietary groups. The experiments were approved by the UNSW animal care and ethics committee (ACEC 15/48B), and followed guidelines issued by the National Health and Medical Research Council of Australia.\nLipids were extracted from frozen tissue samples or cells using a two-phase procedure with methyl-tert-butyl ether (MTBE)/methanol/water (10:3:2.5, v/v/v)[67]. Frozen tissue samples (~20 mg) were homogenized in 0.2 mL methanol containing 0.01% butylated hydroxytoluene (BHT), using a Precellys 24 homogenizer and Cryolys cooling unit (Bertin Technologies) with CK14 (1.4-mm ceramic) beads. The homogenates were spiked with an internal standard mixture comprising 5 nmole 19:0/19:0 phosphatidylcholine and 2 nmole each of 17:0/17:0 phosphatidylethanolamine, 17:0/17:0 phosphatidylserine, 17:0/17:0 d5-diacylglycerol, 17:0/17:0 phosphatidylglycerol, 14:0/14:0/14:0/14:0 cardiolipin, 18:1/12:0 SM, 18:1/17:0 ceramide, 18:1/12:0 glucosylceramide, 18:1/12:0 lactosylceramide, 18:1/12:0 sulfatide (all from Avanti Polar Lipids, USA), and 17:0/17:0/17:0 TAG (Cayman Chemical, USA), then transferred to 10 mL screw cap glass tubes. The homogenization tubes containing beads were then washed with another 0.3 mL methanol, and this wash was combined with the first methanol extract, after which 1.7 mL MTBE was added and the samples were sonicated in an ice-cold sonicating water bath (Thermoline Scientific, Australia) for 30 min. Phase separation was induced by addition of 417 µL of mass spectrometry-grade water followed by vortexing and centrifugation at 1000 × g for 10 min. The upper organic phase was collected into 5 mL glass tubes. The lower phase was re-extracted by adding 1 mL MTBE, 300 μL methanol, and 250 μL water. The organic phases were combined in the 5 mL glass tubes and dried under vacuum in a Savant SC210 SpeedVac (Thermo Scientific), then reconstituted in 500 μL methanol and stored at −20 °C until analysis.\nLipidomic profiling was performed on a QExactive Plus mass spectrometer with heated electrospray ionization (HESI) probe and a Dionex UltiMate 2000 LC pump (Thermo Fisher Scientific). Extracts were resolved on a 2.1 × 100 mm Waters Acquity C18 UPLC column (1.7 µm […]), using a binary gradient in which mobile phase A consisted of acetonitrile:water (60:40), 10 mM ammonium formate, 0.1% formic acid; and mobile phase B was isopropanol:acetonitrile (90:10), 10 mM ammonium formate, 0.1% formic acid[68]. The flow rate was 260 µL/min and column oven 55 °C. Data was acquired in full scan/data-dependent MS^2 mode (full scan resolution 70,000 FWHM, scan range 400–1200 m/z). The ten most abundant ions in each cycle were subjected to MS^2 using an isolation window of 1.4 m/z, collision energy 30 eV, resolution 17,500, maximum integration time 110 ms and dynamic exclusion window 10 s. An exclusion list of background ions was used based on a solvent blank. LipidSearch v4.1.30 software (ThermoFisher Scientific) was used for chromatogram alignment, peak identification and integration. Each lipid peak was manually verified for column elution time and characteristic fragment ions. Data were then exported to an Excel spreadsheet for normalisation of each lipid to its class-specific internal standard, and lipid concentrations were calculated relative to the internal standard.\nData were log transformed, then subjected to two-tailed t-tests adjusted for multiple comparisons using GraphPad PRISM (Benjamini, Krieger and Yekutieli correction, Q = 1%).",
  "note": "“And” between values parts separate entries of the source, which are not always exact repeats. Equal entries are not always repeated.",
  "data": [
    {"compound": "C[C@@](N)(CO)CCc1ccc(OCc2ccc(Cl)c(Cl)c2)cc1", "note": "[P053, (S)-2-amino-4-(4-(3,4-dichlorobenzyloxy)phenyl)-2-methylbutan-1-ol]", "values": [
      {"measurement": "Ceramide 18:1/16:0 content of liver", "setting": "Chow + P053", "result": "0.263 and 0.826 and 0.657 and 1.600 and 0.958 and 0.311 and 0.952 and 1.950 and 1.430 and 1.980"},
      {"measurement": "Ceramide 18:1/18:0 content of liver", "setting": "Chow + P053", "result": "0.468 and 0.536 and 0.500 and 0.564 and 0.490 and 0.488 and 0.800 and 0.676 and 0.526 and 0.572"},
      {"measurement": "Ceramide 18:1/20:0 content of liver", "setting": "Chow + P053", "result": "0.373 and 0.356 and 0.495 and 0.460 and 0.417 and 0.442 and 0.880 and 0.398 and 0.505 and 0.396"},
      {"measurement": "Ceramide 18:1/22:0 content of liver", "setting": "Chow + P053", "result": "3.920 and 1.760 and 3.420 and 5.450 and 4.500 and 5.040 and 3.220 and 5.390 and 4.280 and 5.730"},
      {"measurement": "Ceramide 18:1/22:1 content of liver", "setting": "Chow + P053", "result": "0.723 and 0.782 and 0.523 and 0.904 and 0.601 and 0.629 and 0.682 and 0.527 and 0.912 and 0.679"},
      {"measurement": "Ceramide 18:1/24:0 content of liver", "setting": "Chow + P053", "result": "3.590 and 2.080 and 4.670 and 4.260 and 5.640 and 4.820 and 3.660 and 3.820 and 3.320 and 4.860"},
      {"measurement": "Ceramide 18:1/24:1 content of liver", "setting": "Chow + P053", "result": "6.030 and 5.880 and 4.990 and 7.190 and 10.500 and 7.070 (2×) and 5.770 and 7.700 and 9.200"},
      {"measurement": "SM 34:1 content of liver", "setting": "Chow + P053", "result": "166.01 and 387.90 and 294.94 and 188.63 and 560.02 and 385.72 and 339.20 and 244.42 and 416.06 and 213.21"},
      {"measurement": "SM 36:1 content of liver", "setting": "Chow + P053", "result": "17.50 and 23.09 and 28.72 and 28.48 and 31.35 and 32.32 and 36.07 and 17.60 and 29.53 and 28.44"},
      {"measurement": "SM 38:1 content of liver", "setting": "Chow + P053", "result": "20.23 and 36.64 and 18.78 and 30.07 and 30.24 and 24.30 and 33.98 and 28.61 and 27.66 and 25.39"},
      {"measurement": "SM 40:1 content of liver", "setting": "Chow + P053", "result": "190.28 and 236.56 and 278.04 and 382.12 and 238.06 and 386.25 and 326.88 and 330.28 and 377.35 and 269.17"},
      {"measurement": "SM 40:2 content of liver", "setting": "Chow + P053", "result": "31.01 and 36.97 and 24.71 and 36.72 and 38.54 and 35.80 and 48.00 and 37.75 and 38.85 and 32.99"},
      {"measurement": "SM 42:1 content of liver", "setting": "Chow + P053", "result": "17.79 and 25.33 and 19.04 and 17.96 and 14.02 and 33.47 and 24.89 and 25.97 and 20.36 and 14.52"},
      {"measurement": "SM 42:2 content of liver", "setting": "Chow + P053", "result": "265.43 and 723.53 and 60.59 and 173.83 and 445.88 and 448.77 and 411.18 and 225.87 and 409.74 and 354.33"},
      {"measurement": "SM 42:3 content of liver", "setting": "Chow + P053", "result": "12.99 and 95.71 and 34.45 and 42.03 and 46.27 and 40.91 and 37.02 and 32.31 and 26.34 and 23.58"},
      {"measurement": "Ceramide 18:1/16:0 content of liver", "setting": "HFD + P053", "result": "1.320 and 0.972 and 0.437 and 1.310 and 0.312 and 0.006 and 2.340 and 2.140 and 1.290 and 1.500"},
      {"measurement": "Ceramide 18:1/18:0 content of liver", "setting": "HFD + P053", "result": "0.435 and 0.273 and 0.474 and 0.459 and 0.643 and 0.366 and 0.820 and 0.267 and 0.974 and 0.526"},
      {"measurement": "Ceramide 18:1/20:0 content of liver", "setting": "HFD + P053", "result": "0.582 and 0.659 and 1.010 and 1.000 and 0.971 and 0.637 and 0.716 and 0.382 and 1.670 and 1.340"},
      {"measurement": "Ceramide 18:1/22:0 content of liver", "setting": "HFD + P053", "result": "5.900 and 4.030 and 8.630 and 5.080 and 3.630 and 4.930 and 8.270 and 6.990 and 8.250 and 9.280"},
      {"measurement": "Ceramide 18:1/22:1 content of liver", "setting": "HFD + P053", "result": "0.333 and 0.644 and 0.674 and 0.925 and 0.703 and 0.380 and 0.572 and 0.319 and 0.786 and 0.444"},
      {"measurement": "Ceramide 18:1/24:0 content of liver", "setting": "HFD + P053", "result": "5.470 and 0.260 and 4.890 and 2.480 and 1.780 and 2.580 and 4.330 and 4.610 and 7.520 and 5.820"},
      {"measurement": "Ceramide 18:1/24:1 content of liver", "setting": "HFD + P053", "result": "6.580 and 2.880 and 4.960 and 4.030 and 5.720 and 2.860 and 6.330 and 6.390 and 11.600 and 5.550"},
      {"measurement": "SM 34:1 content of liver", "setting": "HFD + P053", "result": "482.51 and 71.17 and 450.03 and 341.58 and 602.82 and 140.43 and 342.86 and 326.17 and 1409.61 and 780.28"},
      {"measurement": "SM 36:1 content of liver", "setting": "HFD + P053", "result": "53.21 and 102.16 and 78.05 and 79.54 and 65.66 and 116.67 and 78.22 and 28.49 and 259.61 and 108.18"},
      {"measurement": "SM 38:1 content of liver", "setting": "HFD + P053", "result": "71.47 and 53.18 and 46.58 and 23.22 and 42.32 and 78.12 and 59.56 and 48.00 and 174.38 and 50.63"},
      {"measurement": "SM 40:1 content of liver", "setting": "HFD + P053", "result": "580.97 and 447.50 and 671.33 and 376.94 and 209.01 and 396.09 and 367.60 and 345.17 and 872.91 and 711.11"},
      {"measurement": "SM 40:2 content of liver", "setting": "HFD + P053", "result": "46.18 and 47.77 and 24.90 and 19.09 and 21.42 and 31.04 and 27.87 and 23.30 and 72.99 and 30.73"},
      {"measurement": "SM 42:1 content of liver", "setting": "HFD + P053", "result": "18.56 and 11.22 and 9.61 and 4.95 and 13.26 and 9.80 and 20.61 and 8.52 and 19.00 and 16.17"},
      {"measurement": "SM 42:2 content of liver", "setting": "HFD + P053", "result": "531.45 and 245.25 and 263.63 and 192.83 and 186.28 and 157.29 and 222.03 and 342.17 and 572.48 and 255.77"},
      {"measurement": "SM 42:3 content of liver", "setting": "HFD + P053", "result": "38.83 and 26.76 and 24.26 and 23.94 and 22.31 and 29.44 and 41.75 and 49.23 and 92.66 and 37.38"},
      {"measurement": "265 lipids measured in liver", "setting": "chow or HFD", "result": "none was significantly affected"}
    ]}
  ]
}
